Reference: US12700475B2, “Systems and methods for dissecting heterogeneous cell populations” (California Institute of Technology, priority 2018, dated 2026)

Columns and labels:
[1] = tested on: neural progenitor subpopulation from the ventricular zone (VZ); experiment: High-concentration additional signals on ventricular zone cells: neural progenitor subpopulation aligned to VZ-D0, differential genes by L1-norm; format: cell-based, mouse
Method: Having seen that these signals can control population structure, whether these additional signals induced major transcriptional changes in neural stem cells was determined. Further, whether any changes restored the functional defects observed in response to in vitro culture was determined. To learn these transcriptional changes, a new experiment was performed using high concentrations of signaling factors for two reasons: 1) the original combinatorial screen required the cells to be fixed in methanol, which may disrupt gene expression values thus making comparing that data directly to the in vivo data difficult and 2) the original combinatorial screen suffered from low sample number for some of the conditions, due to variation in proliferation rate. This new experiment was performed by adding high concentrations of additional signals (BMP4 (20 ng/mL), CHIR (3 uM), PDGF-AA (20 ng/mL) and DLL1 (surface-coated)) in addition to high concentrations of EGF/FGF immediately after dissociation of cells from the VZ, and all cells were grown for five days in these signal cocktails before profiling.
First, models were built for all of the new samples, aligned each to the VZ-D0 sample (which served as the control), and then only the subpopulations across all samples that aligned to the neural progenitor population were pulled out (FIG. 39B). By plotting the Jeffreys Divergence between these aligned populations (FIG. 39C), all the in vivo populations (E15, E18, and VZ-D0) were seen to be close to each other, while in vitro populations were very distant (VZ-D18 and ivNSC).
To confirm this possibility, the genes that were differentially expressed in the BMP4-, DLL-, PDGF-, and CHIR-containing cells were examined, and these genes were compared to the genes discovered in FIG. 36A-36I. […] By contrast, CHIR only rescued 3 of the lost genes, while DLL and PDGF had only one differentially regulated gene each (FIG. 39D).
Normally in development, these neural progenitors give rise to neurons that form six distinct layers in the cortex. These cortical layers have distinct functions, connectivity patterns, and gene expression patterns, which have been characterized in the literature. The gene expression patterns of these layer-specific genes were examined in neural progenitor populations aligned across all samples (FIGS. 39H-39I). Expression of these genes, while noisy, was very extensive in the in vivo populations, but that culture in vitro erased their expression.
Neuroprogenitors are dissociated from the combined cortex, hippocampus and ventricular zone of E18 mice (Brainbits). After dissociation and resuspension of the cells in NPgrow, cells were counted and plated onto ultra-low attachment 100 mm culture plates (Corning) at one million cells per plate in 10 mL of NPgrow supplemented with 1% Penicillin-Streptomycin. Cells were cultured at 37° C. and 5% CO2 and supplemented medium was changed every 3 to 4 days. In some experiments, subventricular zone (SVZ) stem cells were derived with supplemental factors during derivation. PDGF-AA and BMP4 (Peprotech) were used at […], and 20 ng/mL. CHIR99021 (Stem Cell) was used at 3 uM. DLL1 ligand was coated onto tissue culture plastic for one hour before plating cells.
For each gene, two empirical distributions P1(g), P2(g), one for each subpopulation, were determined. These distributions were discretized over identical histogram binnings, a, over the gene's entire range of expression, Ω. Then the L1 distance was defined as: d=sign(g2−g1)Σa∈Ω∥P1(a)−P2(a)∥1, where g1 and g2 denote the respective means of subpopulations 1 and 2. […] The L1 distance ranged from −2 to +2, both of which corresponded to completely non-overlapping distributions. Genes with L1 distances of high magnitude (≳0.5) always had distributions which, by eye, were in obvious agreement with the labeled directionality. […] Query.

[2] = tested on: neural stem cells / progenitor subpopulations from E18 mouse brain; experiment: Combinatorial signal screen on cells dissociated from the brain: LLR ranking, query, multinomial logistic regression of subpopulation abundances; format: cell-based; details: for log-likelihood ratio (LLR) score against control population: control 20 ng/mL EGF/FGF
Method: Next, whether and how signaling interventions can pre-emptively bias the transcriptional state of neural stem cells, potentially restoring lost functionality, were determined. Given the finding that transcriptional changes happened in less than three days after in vitro culture, signals were added immediately after dissociation from the brain. Signals known to be important in neural stem cell differentiation into astrocytes (BMP4), neurons (Wnt pathway through CHIR activation), or oligodendrocytes (PDGF-AA), were chosen. A combinatorial screen, in which these signals were added together with EGF/FGF at varying concentrations to dissociated cells from the brain, were performed. The cells were grown for 5 days before profiling. To profile all of these samples, a multiplexing approach, in which cells were methanol fixed and then covalently labeled with a separate exogenous DNA barcode for each experimental condition, was used. A total of 8691 cells were profiled across 19 conditions [See Methods—Experimental multiplexing using Clicktags in this example].
First, how the populations responded at a high-level were examined by using the PopAlign framework to build new models of populations, and the populations were ranked against a control population using a Log-likelihood ratio score (FIG. 38A). In this case, the control population was defined as the 20 ng/mL EGF/FGF condition, which is the concentration of growth factors normally used to propagate neural stem cells in culture. The log-likelihood ratio score is a single metric that measures the extent to which an entire population model diverges from a control population.
To investigate this more deeply, how the population structure of these progenitor cells responded to the signaling cues was determined. For this analysis the query function [See Methods—Query in this example] of the modeling framework was used to score all cells in each sample using a standard model built from the control population. For this combinatorial screen, some conditions suffered from poor sampling (roughly 100 cells vs. 1000 cells for most samples) due to variation in proliferation rates. Thus, querying all samples using the same model was more robust than building separate models (which can be of poor quality with severe undersampling). The first 3 principal components (PCs) were used as the feature vectors in order to improve the sampling within the gene expression space.
In this new analysis, the population were segmented into more fine-grained subpopulations (FIG. 38B). While there was a committed neuroblast population, the neural progenitor population now split into three subpopulations: (1) a proliferating progenitor (PP) population that actively expressed mitotic genes, (2) a non-proliferating progenitor population (NPP), as well as (3) a basal progenitor (BP) that only expressed the progenitor program (Prog), but not glial genes like ALDOC or SPARCL1. Using the control model, individual cells from each sample were scored and assigned into one of the four subpopulations, and abundances of each individual subpopulation across all experimental samples were (FIG. 38D).
To dissect how the abundances of these individual populations responded to signals, a multinomial logistic regression analysis was performed. Multinomial logistic regression models were used to determine the probability of each cell belonging to one of K mutually exclusive classes (in this case, the four subpopulations defined above) based on m independent predictor variables (in this case, the concentrations of each signal) [See Methods—Multinomial logistic regression in this example].
By examining the regression coefficients β, the relationship between each signal and how the signal regulates the proportions of each cell type can be determined. Importantly, the regression model only computed coefficients for K−1 of the outcome classes, while the K^th class was treated as a reference. […]

[3] = tested on: primary human peripheral blood mononuclear cells (PBMCs); experiment: PBMC signaling experiment: single-cell mRNA-seq with PopAlign alignment to the reference PBMC sample; format: cell-based; details: 1 ng/mL, 13 hours
Method: One non-limiting application of PopAlign is to study heterogeneous cell populations in the human body as they respond to environmental change, drug treatments, and disease. The human immune system is an extremely heterogeneous physiological system that is central for disease and cell engineering applications. As a test case, PopAlign was tested for its ability to identify subtype-specific signaling responses in a complex mixture of primary human immune cells. Thus, primary human peripheral blood mononuclear cells (PBMCs) (FIG. 17A) were treated with two lymphokines—granulocyte-macrophage colony-stimulating factor (GM-CSF) (FIG. 17C) and interferon-gamma (IFNG) (FIG. 17D) that are known to have a specific impact on monocytes (See Experimental Methods). […] In the reference PBMCs, five independent cell densities (FIG. 17A) were identified and classified using canonical markers from the literature (FIG. 17B). The signal treated cell-populations (FIGS. 17C-17D) were aligned to the PBMC data (FIG. 17A), finding that, for both signals, the monocyte populations (mixtures PBMC-1, PBMC-3) had the largest shifts in their average gene expression state (|Δμ|>0.04) (FIG. 17F). While T-cell abundances changed (numbers), their mean cell states (μ) had the lowest magnitude of gene expression shift. For immune cell experiments, the independent mixture components were classified as effector T cells (CD3+/CD57+), naive T-cells(CD3+/CD28+), erythrocytes (HBB+), canonical monocytes (CD14+/CD16low), and nonclassical monocytes(CD14low/CD16++) (FIG. 16E). Populations in the test samples—GM-CSF (FIG. 16B) and IFNG (FIG. 15C)—were aligned to the reference populations (control) by finding pairs of components that minimize the Jeffrey's divergence (FIG. 16D). Cryopreserved PBMCs sourced from Hemacare (~10 million cells, source ID: D23127, Lot: 17043194) were thawed in a 37° C. waterbath for 2 minutes after which the cells were transferred to a 15 mL conical tube. Prewarmed RPMI1640 was then added to the 15 mL conical to a final volume of 10 mL and centrifuged for 2 minutes at 300RCF to pellet the cells. Supernatant was removed and cells were resuspended in 10 mL of RPMI1640 supplemented with 10% FBS and 1% pen/strep. The cell suspension was then plated onto a 100 mm low attachment plate and placed in a CO2 incubator at 37° C. for 5 hours for the cells to recover. For each condition, 700,000 cells were aliquoted into a well of a 96 well plate. These cells were cultured for 13 hours under two different conditions: 1) IFN-γ@ 1 ng/mL, 2) GM-CSF 1 ng/mL, each with a single additional replicate. After incubation, the plate was sealed with an aluminum adhesive and centrifuged for 3 minutes at 300RCF. […]

| Molecule | number of differentially regulated genes ([1]; 5 days with high EGF/FGF) | log-likelihood ratio (LLR) score against control population ([2]; 5 days) | class of transcriptional (signaling) response of canonical and non-canonical monocytes [3] | gene expression programs altered in monocytes [3] | also measured |
| --- | --- | --- | --- | --- | --- |
| PDGF | one |  |  |  | odds ratio, basal progenitors vs non-proliferating progenitors ([2]; per unit of signal (PDGF-AA 20 ng/mL), 5 days): 1.75 |
| Cc1c[nH]c(-c2cnc(NCCNc3ccc(C#N)cn3)nc2-c2ccc(Cl)cc2Cl)n1 [CHIR, CHIR99021, reference compound] |  | lowest LLR score |  |  | number of genes downregulated in ivNSCs that are re-induced (upregulated) by the signal ([1]; of 190 genes downregulated in ivNSCs vs E18 NProgs, 5 days with high EGF/FGF): 3 genes; odds ratio, proliferating progenitors (PP) vs non-proliferating progenitors (NPP) ([2]; per unit of signal (unit = maximum: EGF/FGF 20 ng/mL each, CHIR 3 uM), 5 days): 0.6 |
| GM-CSF: lymphokine signal applied to PBMCs at 1 ng/mL |  |  | additive | activating a new gene expression program called Chemokine Secretion/Leukocyte Migration pathway |  |
| IFNG: lymphokine signal applied to PBMCs at 1 ng/mL |  |  | convergent | up-regulation of pathways involved in antigen presentation and phagocytosis |  |
| DLL: DLL1 ligand, surface-coated onto tissue culture plastic (protein, UniProt O00548 18-723, looked up, surface-coated, DLL1 ligand, surface-coated onto tissue culture plastic) Delta-like protein 1: QVWSSGVFELKLQEFVNKKGLLGNRNCCRGGAGPPPCACRTFFRVCLKHYQASVSPEPPCTYGSAVTPVLGVDSFSLPDGGGADSAFSNPIRFPFGFTWPGTFSLIIEALHTDSPDDLATENPERLISRLATQRHLTVGEEWSQDLHSSGRTDLKYSYRFVCDEHYYGEGCSVFCRPRDDAFGHFTCGERGEKVCNPGWKGPYCTEPICLPGCDEQHGFCDKPGECKCRVGWQGRYCDECIRYPGCLHGTCQQPWQCNCQEGWGGLFCNQDLNYCTHHKPCKNGATCTNTGQGSYTCSCRPGYTGATCELGIDECDPSPCKNGGSCTDLENSYSCTCPPGFYGKICELSAMTCADGPCFNGGRCSDSPDGGYSCRCPVGYSGFNCEKKIDYCSSSPCSNGAKCVDLGDAYLCRCQAGFSGRHCDDNVDDCASSPCANGGTCRDGVNDFSCTCPPGYTGRNCSAPVSRCEHAPCHNGATCHERGHRYVCECARGYGGPNCQFLLPELPPGPAVVDLTEKLEGQGGPFPWVAVCAGVILVLMLLLGCAAVVVCVRLRLQKHRPPADPCRGETETMNNLANCQREKDISVSIIGATQIKNTNKKADFHGDHSADKNGFKARYPAVDYNLVQDLKGDDTAVRDAHSKRDTKCQPQGSSGEEKGTPTTLRGGEASERKRPDSGCSTSKDTKYQSVYVISEEKDECVIATEV | one |  |  |  |  |
| BMP4: signaling factor (Peprotech) important in neural stem cell differentiation into astrocytes (protein, UniProt P12644 293-408, looked up) Bone morphogenetic protein 4: SPKHHSQRARKKNKNCRRHSLYVDFSDVGWNDWIVAPPGYQAFYCHGDCPFPLADHLNSTNHAIVQTLVNSVNSSIPKACCVPTELSAISMLYLDEYDKVVLKNYQEMVVEGCGCR |  | lowest LLR score |  |  | rescue of expression of cortical layer-specific genes in neural progenitors ([1]; 5 days in culture): only signal that could rescue the expression of these genes; number of genes upregulated in ivNSCs that are suppressed by the signal ([1]; 5 days with high EGF/FGF): 22 genes; Jeffreys Divergence of aligned neural progenitor subpopulation to in vivo populations ([1]; compared to VZ-D5, VZ-D5-CHIR, VZ-D5-DLL, VZ-D5-PDGF): closest to the in vivo populations; committed neuroblasts (CN) proportion of the population ([2]; addition of BMP and low EGF/FGF): ~50%; odds ratio, committed neuroblasts vs non-proliferating progenitors ([2]; per unit of signal (BMP4 20 ng/mL), 5 days): 2.2 |
